# According to article PMC8039949, “A novel small-molecule PROTAC selectively promotes tau clearance to improve cognitive functions in Alzheimer-like models” (Theranostics, 2021):
# Legend:
# tau [1] = target: T1, tau (UniProt P10636+P40338, P618L); test: Multiple-doses subcutaneous administration in 3xTg-AD mice, brain tau; assay type: in vivo, mouse; details: 9.5 m-old 3xTg-AD mice, subcutaneous 3 mg/kg every 6 days, 5 times
# T1 construct: tissue stock number 34830; host or cells: hippocampus and cortex of 9.5 m-old 3xTg-AD mice
# Experimental: (§1) For brain surgery and stereotaxic cerebroventricular drug delivery, the mice were placed in a stereotaxic apparatus and anesthetized with 2% isoflurane (RWD Life Science, R510-22) through a nose cone (300-500 mL/min, RWD Life Science, China, R500). The scalp was incised along the midline between the ears after the mice were sterilized with iodophors and 75% (vol/vol) alcohol. The holes were drilled stereotaxically in the skull at a cerebroventricular location (posterior 0.22 mm, lateral 0.9 mm, and ventral 2.3 mm relative to bregma). Using a microinjection system (Shenzhen RWD Life Technology Co., Ltd; RWD 69100), C004019 (5 μL, 200 μM) was infused at a rate of 0.5 μL/min. The needle was kept in place for 10 min before withdrawal. After the skin was sutured, the mice were placed on a heater for analepsia. For subcutaneous injection, C004019 was diluted with 20% HP-β-CD and injected under the skin on the back neck to reach a final concentration of 3 mg/kg (low dose) or 15 mg/kg (high dose).
# The cells or hippocampal/cortex tissues were homogenized for ~ 30 min on ice in buffer [50 mM Tris·HCl pH 7.4-7.5, 100 mM NaCl, 1% (vol/vol) Triton X-100, 5 mM EDTA, 1:100 PMSF, 1:1,000 protease inhibitor cocktail containing 4-(2-Aminoethyl)-benzenesulfonyl fluoride hydrochloride, aprotinin, bestatin, leupeptin, E-64, and pepstatin A stored at 4 °C], and then centrifuged at 12,000 × g at 4 °C for 20 min. The supernatant was collected and the protein levels were analyzed using bicinchoninic acid (BCA, KF016, Sigma-Aldrich) by following the manufacturer's instruction (served as soluble protein). The pellet was further incubated with 8% (wt/vol) SDS buffer at 4 °C and then treated by ultrasonic wave to reach a complete resuspension. The suspension was spun (18,000 × g, 4 °C for 20 min) and the supernatant collected (served as insoluble fraction). The supernatant of different faction was respectively mixed with loading buffer (3:1, vol/vol) containing 200 mM Tris-HCl, pH 6.8, 8% SDS, 40% glycerol, and boiled for 10 min. […] Immunoreactive bands were quantitatively analyzed by Image J2x software. […]
# tau [2] = target: tau (Mus musculus, UniProt P10637); test: Intracerebroventricular infusion in wild-type mice, brain tau by Western blotting; assay type: in vivo; details: 4 m-old wild-type mice, intracerebroventricular 5 μL, 200 μM
# Experimental: as §1
# The cells or hippocampal/cortex tissues were homogenized for ~ 30 min on ice in buffer [50 mM Tris·HCl pH 7.4-7.5, 100 mM NaCl, 1% (vol/vol) Triton X-100, 5 mM EDTA, 1:100 PMSF, 1:1,000 protease inhibitor cocktail containing 4-(2-Aminoethyl)-benzenesulfonyl fluoride hydrochloride, aprotinin, bestatin, leupeptin, E-64, and pepstatin A stored at 4 °C], and then centrifuged at 12,000 × g at 4 °C for 20 min. The supernatant was collected and the protein levels were analyzed using bicinchoninic acid (BCA, KF016, Sigma-Aldrich) by following the manufacturer's instruction (served as soluble protein). The pellet was further incubated with 8% (wt/vol) SDS buffer at 4 °C and then treated by ultrasonic wave to reach a complete resuspension. The suspension was spun (18,000 × g, 4 °C for 20 min) and the supernatant collected (served as insoluble fraction). The supernatant of different faction was respectively mixed with loading buffer (3:1, vol/vol) containing 200 mM Tris-HCl, pH 6.8, 8% SDS, 40% glycerol, and boiled for 10 min. […] Immunoreactive bands were quantitatively analyzed by Image J2x software.
# tau [3] = target: T1, tau; test: Intracerebroventricular infusion in 3xTg-AD mice, brain tau by Western blotting and immunohistochemistry; assay type: in vivo, mouse; details: 9.5 m-old 3xTg-AD mice; intracerebroventricular 5 μL, 200 μM; 48 h
# Experimental: as §1, with “The needle was kept in place for 10 min before withdrawal. After the skin was sutured, the mice were placed on a heater for analepsia. For subcutaneous injection, C004019 was diluted with 20% HP-β-CD and injected under the skin on the back neck to reach a final concentration of 3 mg/kg (low dose) or 15 mg/kg (high dose).” left out
# The cells or hippocampal/cortex tissues were homogenized for ~ 30 min on ice in buffer [50 mM Tris·HCl pH 7.4-7.5, 100 mM NaCl, 1% (vol/vol) Triton X-100, 5 mM EDTA, 1:100 PMSF, 1:1,000 protease inhibitor cocktail containing 4-(2-Aminoethyl)-benzenesulfonyl fluoride hydrochloride, aprotinin, bestatin, leupeptin, E-64, and pepstatin A stored at 4 °C], and then centrifuged at 12,000 × g at 4 °C for 20 min. The supernatant was collected and the protein levels were analyzed using bicinchoninic acid (BCA, KF016, Sigma-Aldrich) by following the manufacturer's instruction (served as soluble protein). […] Immunoreactive bands were quantitatively analyzed by Image J2x software. […]
# Sequence of tau (Mus musculus, UniProt P10637) (P10637 114-430 isoform P10637-2 limits assumed): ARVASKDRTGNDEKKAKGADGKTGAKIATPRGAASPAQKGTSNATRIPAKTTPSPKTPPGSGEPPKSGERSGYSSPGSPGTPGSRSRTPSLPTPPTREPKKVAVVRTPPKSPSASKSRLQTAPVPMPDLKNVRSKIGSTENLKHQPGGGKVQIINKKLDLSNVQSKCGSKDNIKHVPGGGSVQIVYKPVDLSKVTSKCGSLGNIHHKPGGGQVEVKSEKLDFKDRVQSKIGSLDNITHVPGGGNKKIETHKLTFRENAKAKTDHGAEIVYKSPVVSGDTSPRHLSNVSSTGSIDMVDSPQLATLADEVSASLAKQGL
# T1 sequence (P10636 1-383 isoform P10636-6 P243L): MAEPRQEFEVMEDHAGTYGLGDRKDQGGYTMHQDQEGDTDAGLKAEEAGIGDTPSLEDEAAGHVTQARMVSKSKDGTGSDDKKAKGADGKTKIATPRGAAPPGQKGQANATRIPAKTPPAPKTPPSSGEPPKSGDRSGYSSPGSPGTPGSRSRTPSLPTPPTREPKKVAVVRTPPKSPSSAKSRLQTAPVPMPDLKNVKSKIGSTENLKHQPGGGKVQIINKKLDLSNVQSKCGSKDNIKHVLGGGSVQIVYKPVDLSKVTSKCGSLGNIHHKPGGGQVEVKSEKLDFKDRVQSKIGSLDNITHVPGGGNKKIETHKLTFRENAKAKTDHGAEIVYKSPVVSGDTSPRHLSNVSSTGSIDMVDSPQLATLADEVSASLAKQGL
# T1 sequence (P40338 whole entry): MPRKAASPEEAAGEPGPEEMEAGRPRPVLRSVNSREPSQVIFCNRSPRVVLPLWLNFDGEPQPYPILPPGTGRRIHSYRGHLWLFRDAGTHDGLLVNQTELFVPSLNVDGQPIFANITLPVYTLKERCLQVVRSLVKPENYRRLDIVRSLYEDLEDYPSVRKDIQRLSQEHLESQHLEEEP
# T1 sequence (P83940 whole entry partner): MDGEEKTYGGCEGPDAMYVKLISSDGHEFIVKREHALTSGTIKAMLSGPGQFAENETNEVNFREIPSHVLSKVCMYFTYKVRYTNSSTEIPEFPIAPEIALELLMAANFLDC
# T1 sequence (P62869 whole entry partner): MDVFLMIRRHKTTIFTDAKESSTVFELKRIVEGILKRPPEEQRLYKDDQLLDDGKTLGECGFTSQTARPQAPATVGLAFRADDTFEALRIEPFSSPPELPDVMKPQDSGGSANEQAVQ
structure (smiles),measurement,setting,value
CC(=O)N1CCCN(c2nc(NCCc3cccs3)nc(N(C)CC(=O)NCCOCCOCCOCC(=O)N[C@H](C(=O)N3C[C@H](O)C[C@H]3C(=O)NCc3ccc(-c4scnc4C)cc3)C(C)(C)C)n2)CC1 [C004019],"p-tau and aggregated tau (pS404, AT8 immunohistochemistry, Thioflavin S staining)",tau [1],Reduction of p-tau and aggregated tau proteins
same,oligomer tau (T22-positive) in the soluble fraction,tau [1]; Western blotting,significantly reduced T22-positive tau
same,soluble and insoluble tau levels in hippocampal and cortex extracts,tau [1]; Western blotting,remarkably reduced both soluble and insoluble tau levels
same,hippocampal tau level,tau [2]; 24 h,most remarkable hippocampal tau reduction
same,brain cortex tau level,tau [2]; 24 h and 48 h,significant reduction of tau was only detected at 48 h but not 24 h
same,hippocampal tau level,tau [2]; 48 h,still very significant
same,total tau and p-tau levels in hippocampus and cortex,tau [3],reduced total tau and the p-tau levels
